Results published in the NIST ThermoML archive (doi:10.1021/je049842u).
Numbers after ± are expanded uncertainties.

Assays:
[1] = compressibility factor (dimensionless); conditions: Gas, Burnett expansion method
[2] = Liquid, Closed cell (Static) method

[N-]=[N+]=O [nitrous oxide]
compressibility factor ([1]; 283.5 K, 207.4 kPa): 0.9884 ± 0.001 | compressibility factor ([1]; 283.5 K, 308.1 kPa): 0.9809 ± 0.001 | compressibility factor ([1]; 283.5 K, 456.3 kPa): 0.9705 ± 0.001 | compressibility factor ([1]; 283.5 K, 672.4 kPa): 0.9554 ± 0.001 | compressibility factor ([1]; 283.5 K, 983.6 kPa): 0.9337 ± 0.0009 | compressibility factor ([1]; 283.5 K, 1422.1 kPa): 0.9019 ± 0.0009 | compressibility factor ([1]; 283.5 K, 2020 kPa): 0.8558 ± 0.0009 | compressibility factor ([1]; 283.5 K, 2788.1 kPa): 0.7891 ± 0.0008 | compressibility factor ([1]; 283.5 K, 3680.3 kPa): 0.6958 ± 0.0007 | compressibility factor ([1]; 283.51 K, 170.6 kPa): 0.9917 ± 0.001 | compressibility factor ([1]; 283.51 K, 253.7 kPa): 0.9848 ± 0.001 | compressibility factor ([1]; 283.51 K, 376.3 kPa): 0.9761 ± 0.001 | compressibility factor ([1]; 283.51 K, 556.2 kPa): 0.9636 ± 0.001 | compressibility factor ([1]; 283.51 K, 816.9 kPa): 0.9456 ± 0.0009 | compressibility factor ([1]; 283.51 K, 1188.9 kPa): 0.9193 ± 0.0009 | compressibility factor ([1]; 283.51 K, 1705.3 kPa): 0.8809 ± 0.0009 | compressibility factor ([1]; 283.51 K, 2390.6 kPa): 0.825 ± 0.0008 | compressibility factor ([1]; 283.51 K, 3232.1 kPa): 0.7451 ± 0.0007 | compressibility factor ([1]; 304.09 K, 194 kPa): 0.99 ± 0.001 | compressibility factor ([1]; 304.09 K, 288.7 kPa): 0.9846 ± 0.001 | compressibility factor ([1]; 304.09 K, 429.3 kPa): 0.9779 ± 0.001 | compressibility factor ([1]; 304.09 K, 635.2 kPa): 0.9666 ± 0.001 | compressibility factor ([1]; 304.09 K, 935.6 kPa): 0.9511 ± 0.001 | compressibility factor ([1]; 304.09 K, 1366.6 kPa): 0.9281 ± 0.0009 | compressibility factor ([1]; 304.09 K, 1968.7 kPa): 0.8932 ± 0.0009 | compressibility factor ([1]; 304.09 K, 2781.3 kPa): 0.843 ± 0.0008 | compressibility factor ([1]; 304.09 K, 3812.3 kPa): 0.772 ± 0.0008 | compressibility factor ([1]; 304.1 K, 204 kPa): 0.9912 ± 0.001 | compressibility factor ([1]; 304.1 K, 303.6 kPa): 0.9853 ± 0.001 | compressibility factor ([1]; 304.1 K, 450.8 kPa): 0.9772 ± 0.001 | compressibility factor ([1]; 304.1 K, 666.7 kPa): 0.9655 ± 0.001 | compressibility factor ([1]; 304.1 K, 980.2 kPa): 0.9484 ± 0.001 | compressibility factor ([1]; 304.1 K, 1428.5 kPa): 0.9233 ± 0.0009 | compressibility factor ([1]; 304.1 K, 2054.5 kPa): 0.8871 ± 0.0009 | compressibility factor ([1]; 304.1 K, 2893.4 kPa): 0.8347 ± 0.0008 | compressibility factor ([1]; 304.1 K, 3945.6 kPa): 0.7604 ± 0.0008 | compressibility factor ([1]; 314.41 K, 193.8 kPa): 0.9927 ± 0.001 | compressibility factor ([1]; 314.41 K, 288.6 kPa): 0.9878 ± 0.001 | compressibility factor ([1]; 314.41 K, 429 kPa): 0.9808 ± 0.001 | compressibility factor ([1]; 314.41 K, 635.5 kPa): 0.9706 ± 0.001 | compressibility factor ([1]; 314.41 K, 936.8 kPa): 0.9558 ± 0.001 | compressibility factor ([1]; 314.41 K, 1371.3 kPa): 0.9347 ± 0.0009 | compressibility factor ([1]; 314.41 K, 1984.4 kPa): 0.9036 ± 0.0009 | compressibility factor ([1]; 314.41 K, 2822.9 kPa): 0.8587 ± 0.0009 | compressibility factor ([1]; 314.41 K, 3911.4 kPa): 0.7949 ± 0.0008 | compressibility factor ([1]; 314.42 K, 201.1 kPa): 0.992 ± 0.001 | compressibility factor ([1]; 314.42 K, 299.5 kPa): 0.9869 ± 0.001 | compressibility factor ([1]; 314.42 K, 445.1 kPa): 0.9798 ± 0.001 | compressibility factor ([1]; 314.42 K, 659.3 kPa): 0.9696 ± 0.001 | compressibility factor ([1]; 314.42 K, 971.5 kPa): 0.9545 ± 0.001 | compressibility factor ([1]; 314.42 K, 1420.6 kPa): 0.9324 ± 0.0009 | compressibility factor ([1]; 314.42 K, 2052.9 kPa): 0.9001 ± 0.0009 | compressibility factor ([1]; 314.42 K, 2915.1 kPa): 0.8539 ± 0.0009 | compressibility factor ([1]; 314.42 K, 4027.4 kPa): 0.7881 ± 0.0008 | compressibility factor ([1]; 324.78 K, 182.9 kPa): 0.9923 ± 0.001 | compressibility factor ([1]; 324.78 K, 272.8 kPa): 0.9888 ± 0.001 | compressibility factor ([1]; 324.78 K, 406.1 kPa): 0.9831 ± 0.001 | compressibility factor ([1]; 324.78 K, 602.6 kPa): 0.9746 ± 0.001 | compressibility factor ([1]; 324.78 K, 891.4 kPa): 0.9631 ± 0.001 | compressibility factor ([1]; 324.78 K, 1309.1 kPa): 0.9449 ± 0.0009 | compressibility factor ([1]; 324.78 K, 1904.7 kPa): 0.9185 ± 0.0009 | compressibility factor ([1]; 324.78 K, 2731.6 kPa): 0.88 ± 0.0009 | compressibility factor ([1]; 324.78 K, 3833.8 kPa): 0.8251 ± 0.0008 | compressibility factor ([1]; 324.79 K, 183.9 kPa): 0.9933 ± 0.001 | compressibility factor ([1]; 324.79 K, 274.1 kPa): 0.9891 ± 0.001 | compressibility factor ([1]; 324.79 K, 407.9 kPa): 0.9833 ± 0.001 | compressibility factor ([1]; 324.79 K, 605.3 kPa): 0.9748 ± 0.001 | compressibility factor ([1]; 324.79 K, 894.5 kPa): 0.9623 ± 0.001 | compressibility factor ([1]; 324.79 K, 1313.6 kPa): 0.9441 ± 0.0009 | compressibility factor ([1]; 324.79 K, 1910.8 kPa): 0.9174 ± 0.0009 | compressibility factor ([1]; 324.79 K, 2740 kPa): 0.8789 ± 0.0009 | compressibility factor ([1]; 324.79 K, 3845.5 kPa): 0.824 ± 0.0008 | compressibility factor ([1]; 335.16 K, 175.4 kPa): 0.9949 ± 0.001 | compressibility factor ([1]; 335.16 K, 261.7 kPa): 0.9913 ± 0.001 | compressibility factor ([1]; 335.16 K, 389.8 kPa): 0.9864 ± 0.001 | compressibility factor ([1]; 335.16 K, 579.2 kPa): 0.9792 ± 0.001 | compressibility factor ([1]; 335.16 K, 857.6 kPa): 0.9686 ± 0.001 | compressibility factor ([1]; 335.16 K, 1263.2 kPa): 0.9531 ± 0.001 | compressibility factor ([1]; 335.16 K, 1845.9 kPa): 0.9304 ± 0.0009 | compressibility factor ([1]; 335.16 K, 2665.8 kPa): 0.8977 ± 0.0009 | compressibility factor ([1]; 335.16 K, 3777.8 kPa): 0.8498 ± 0.0009 | compressibility factor ([1]; 335.18 K, 188.5 kPa): 0.9942 ± 0.001 | compressibility factor ([1]; 335.18 K, 281 kPa): 0.9902 ± 0.001 | compressibility factor ([1]; 335.18 K, 418.3 kPa): 0.9847 ± 0.001 | compressibility factor ([1]; 335.18 K, 621.3 kPa): 0.9772 ± 0.001 | compressibility factor ([1]; 335.18 K, 919.2 kPa): 0.9658 ± 0.001 | compressibility factor ([1]; 335.18 K, 1352.3 kPa): 0.9492 ± 0.001 | compressibility factor ([1]; 335.18 K, 1972.3 kPa): 0.9248 ± 0.0009 | compressibility factor ([1]; 335.18 K, 2839.6 kPa): 0.8895 ± 0.0009 | compressibility factor ([1]; 335.18 K, 4008.4 kPa): 0.8389 ± 0.0008 | compressibility factor ([1]; 345.51 K, 185.8 kPa): 0.9943 ± 0.001 | compressibility factor ([1]; 345.51 K, 277.2 kPa): 0.991 ± 0.001 | compressibility factor ([1]; 345.51 K, 413 kPa): 0.9863 ± 0.001 | compressibility factor ([1]; 345.51 K, 613.8 kPa): 0.9794 ± 0.001 | compressibility factor ([1]; 345.51 K, 909.5 kPa): 0.9693 ± 0.001 | compressibility factor ([1]; 345.51 K, 1340.3 kPa): 0.9543 ± 0.001 | compressibility factor ([1]; 345.51 K, 1960.2 kPa): 0.9324 ± 0.0009 | compressibility factor ([1]; 345.51 K, 2834.5 kPa): 0.9008 ± 0.0009 | compressibility factor ([1]; 345.51 K, 4029 kPa): 0.8553 ± 0.0009 | compressibility factor ([1]; 345.58 K, 184.6 kPa): 0.9943 ± 0.001 | compressibility factor ([1]; 345.58 K, 275.5 kPa): 0.9911 ± 0.001 | compressibility factor ([1]; 345.58 K, 410.4 kPa): 0.9865 ± 0.001 | compressibility factor ([1]; 345.58 K, 610.1 kPa): 0.9797 ± 0.001 | compressibility factor ([1]; 345.58 K, 903.9 kPa): 0.9697 ± 0.001 | compressibility factor ([1]; 345.58 K, 1332.3 kPa): 0.9548 ± 0.001 | compressibility factor ([1]; 345.58 K, 1949.3 kPa): 0.9332 ± 0.0009 | compressibility factor ([1]; 345.58 K, 2819.4 kPa): 0.9017 ± 0.0009 | compressibility factor ([1]; 345.58 K, 4008.9 kPa): 0.8565 ± 0.0009 | compressibility factor ([1]; 364.36 K, 207.6 kPa): 0.9928 ± 0.001 | compressibility factor ([1]; 364.36 K, 241.7 kPa): 0.9925 ± 0.001 | compressibility factor ([1]; 364.36 K, 309.9 kPa): 0.9907 ± 0.001 | compressibility factor ([1]; 364.36 K, 360.3 kPa): 0.9889 ± 0.001 | compressibility factor ([1]; 364.36 K, 462 kPa): 0.9871 ± 0.001 | compressibility factor ([1]; 364.36 K, 536.5 kPa): 0.9843 ± 0.001 | compressibility factor ([1]; 364.36 K, 687.1 kPa): 0.9812 ± 0.001 | compressibility factor ([1]; 364.36 K, 797.5 kPa): 0.9779 ± 0.001 | compressibility factor ([1]; 364.36 K, 1018.5 kPa): 0.9723 ± 0.001 | compressibility factor ([1]; 364.36 K, 1179.8 kPa): 0.967 ± 0.001 | compressibility factor ([1]; 364.36 K, 1502.7 kPa): 0.9588 ± 0.001 | compressibility factor ([1]; 364.36 K, 1737 kPa): 0.9517 ± 0.001 | compressibility factor ([1]; 364.36 K, 2201.5 kPa): 0.9389 ± 0.0009 | compressibility factor ([1]; 364.36 K, 2535.6 kPa): 0.9285 ± 0.0009 | compressibility factor ([1]; 364.36 K, 3191.1 kPa): 0.9097 ± 0.0009 | compressibility factor ([1]; 364.36 K, 3655.3 kPa): 0.8947 ± 0.0009 | compressibility factor ([1]; 364.36 K, 4555 kPa): 0.8679 ± 0.0009 | compressibility factor ([1]; 364.36 K, 5179.9 kPa): 0.8475 ± 0.0008 | vapor or sublimation pressure ([2]; 219.24 K): 554.7 ± 1.3 kPa | vapor or sublimation pressure ([2]; 222.28 K): 626.3 ± 1.4 kPa | vapor or sublimation pressure ([2]; 223.31 K): 652.8 ± 1.5 kPa | vapor or sublimation pressure ([2]; 227.32 K): 759.6 ± 1.6 kPa | vapor or sublimation pressure ([2]; 227.36 K): 760.6 ± 1.6 kPa | vapor or sublimation pressure ([2]; 232.37 K): 912.1 ± 2.2 kPa | vapor or sublimation pressure ([2]; 232.43 K): 915.4 ± 2.2 kPa | vapor or sublimation pressure ([2]; 237.49 K): 1092.9 ± 2.1 kPa | vapor or sublimation pressure ([2]; 242.57 K): 1294.7 ± 2.4 kPa | vapor or sublimation pressure ([2]; 247.65 K): 1521.9 ± 2.8 kPa | vapor or sublimation pressure ([2]; 252.73 K): 1777 ± 3.2 kPa | vapor or sublimation pressure ([2]; 257.8 K): 2061.8 ± 3.6 kPa | vapor or sublimation pressure ([2]; 257.87 K): 2065.4 ± 3.6 kPa | vapor or sublimation pressure ([2]; 262.9 K): 2379 ± 4.2 kPa | vapor or sublimation pressure ([2]; 262.95 K): 2381.8 ± 4.2 kPa | vapor or sublimation pressure ([2]; 267.98 K): 2730.6 ± 4.8 kPa | vapor or sublimation pressure ([2]; 268.03 K): 2734 ± 4.8 kPa | vapor or sublimation pressure ([2]; 273.08 K): 3119.9 ± 5.4 kPa
